The source of these data is article PMC5082600, “New furoisocoumarins and isocoumarins from the mangrove endophytic fungus Aspergillus sp. 085242” (Beilstein Journal of Organic Chemistry, 2016).

The structures appear in SMILES notation.

Data set [1] is described as follows: DPPH free radical scavenging assay. Particulars: DPPH 150 μM in MeOH, 30 min, room temperature, absorbance at 490 nm; vitamin C as positive control. On the procedure: The assay for DPPH radical scavenging activity was measured by a reported method, with slight modifications. Firstly, 180 μL of DPPH^· (150 μM in MeOH) and 20 μL of a series of test compound solutions (31.2, 62.5, 125, 250, 500 μM in MeOH) were mixed in each well of a 96-well microtiter plate. The reaction was measured by determination of the absorbance Asample+DPPH· using a microtiter plate reader at 490 nm after shaking for 30 min at room temperature in the dark. Twenty μL test samples of each concentration with 180 μL of MeOH were used as the blank measurement for each tested compound, and the absorbance was recorded as Asample. The absorbance of the mixture of 20 μL of MeOH and 180 μL of DPPH^· was recorded as ADPPH·, and the absorbance of the 200 μL of MeOH was measured as Ablank. The natural antioxidant vitamin C was used as a positive control. Calculations of the DPPH^· scavenging activity was performed according to the following equation: scavenging activity (%) = [1 − (Asample+DPPH· − Asample)/(ADPPH· − Ablank)] × 100%. All measurements were done in triplicate from two independent experiments. The reported EC50 was the average value of two independent experiments.

`CC(C)[C@H]1Oc2c(ccc3c2C(=O)O[C@H](C)C3)[C@H]1O` [Compound 2, asperisocoumarin B] registered a melting point of 179.4 to 181.4 °C.
In turn, `O=C1O[C@H]([C@@H](O)CO)C(O)=C1O` [vitamin C, reference compound] had an EC50 in data set [1] of 35 µM.
On the same count and under the same terms, the figure for `CC(C)=C1Oc2c(ccc3cc(C)oc(=O)c23)C1=O` [Compound 1, 7-methyl-2-(propan-2-ylidene)-9H-furo[3,2-h]isochromene-3,9(2H)-dione] is 125 µM.
With `COc1cc2c(c(O)c1COCc1c(OC)cc3c(c1O)C(=O)OCC3)C(=O)OCC2` [Compound 6, asperisocoumarin F], the melting point was in the range of 201.1 to 203 °C.
`CC(C)c1cc2ccc3c(c2o1)C(=O)O[C@H](C)C3` [Compound 3, (R)-2-isopropyl-7-methyl-6,7-dihydro-9H-furo[3,2-h]isochromen-9-one] registered an EC50 in data set [1] of 130 µM.
